PubChem BioAssay AID2060616 (Molecular Pharmacology Branch, DTP, NCI, 2025)

Test system: 377384-186-R-J1-PDC complex spheroid viability
Test: Anticancer human tumor 377384-186-R-J1-PDC patient-derived pancreatic carcinoma cell line growth inhibition [CLK]
Settings: for IC50: curve of first compound; for viability, T/C: stronger effect = lower value
Method in brief: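 Patient-derived tumor cells grown as complex spheroids with HUVEC endothelial cells and mesenchymal stem cells, treated with drug combinations. Concentrations descend in half-log steps from near clinical Cmax, or from 10 microM if Cmax unknown.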
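Note: spheroids exposed to agents for 7 days before reading.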
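Throughout, for viability, T/C: luminescence signal used as a stand-in for viable cells.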

With `C=CC(=O)Nc1cc(Nc2nccc(-c3cn(C)c4ccccc34)n2)c(OC)cc1N(C)CCN(C)C` + CNC(=O)c1ccc(Nc2nc(OC3CCCC3)c3c(-c4ccc5nc(C)oc5c4)c[nH]c3n2)c(OC)c1 the IC50 (second compound 0.0316 µM) was > 300 nM, the IC50 (second compound 0.1 µM) was 53.1 nM and the IC50 (second compound 0.316 µM) was < 0.949 nM. The IC50 (second compound 1 µM) was < 0.949 nM, the IC50 (second compound 3.16 µM) was < 0.949 nM and the IC50 (second compound 10 µM) was < 0.949 nM. The viability, T/C (second compound 0.0316 µM, first compound 0.000949 µM) was 91.5%, the viability, T/C (second compound 0.0316 µM, first compound 0.003 µM) was 109% and the viability, T/C (second compound 0.0316 µM, first compound 0.00949 µM) was 99.2%. It also gave a viability, T/C (second compound 0.0316 µM, first compound 0.03 µM) of 103%, a viability, T/C (second compound 0.0316 µM, first compound 0.0949 µM) of 86.3% and a viability, T/C (second compound 0.0316 µM, first compound 0.3 µM) of 59%. It also gave a viability, T/C (second compound 0.1 µM, first compound 0.000949 µM) of 64.1%, a viability, T/C (second compound 0.1 µM, first compound 0.003 µM) of 63.5% and a viability, T/C (second compound 0.1 µM, first compound 0.00949 µM) of 55.7%. The viability, T/C (second compound 0.1 µM, first compound 0.03 µM) was 59.4%, the viability, T/C (second compound 0.1 µM, first compound 0.0949 µM) was 42.8% and the viability, T/C (second compound 0.1 µM, first compound 0.3 µM) was 29.7%. The viability, T/C (second compound 0.316 µM, first compound 0.000949 µM) was 20.6%, the viability, T/C (second compound 0.316 µM, first compound 0.003 µM) was 23.6% and the viability, T/C (second compound 0.316 µM, first compound 0.00949 µM) was 20.6%. The viability, T/C (second compound 0.316 µM, first compound 0.03 µM) was 17.2%, the viability, T/C (second compound 0.316 µM, first compound 0.0949 µM) was 17.3% and the viability, T/C (second compound 0.316 µM, first compound 0.3 µM) was 17%. The viability, T/C (second compound 1 µM, first compound 0.000949 µM) was 17.7%, the viability, T/C (second compound 1 µM, first compound 0.003 µM) was 18.1% and the viability, T/C (second compound 1 µM, first compound 0.00949 µM) was 21.8%. For the same compound, the viability, T/C (second compound 1 µM, first compound 0.03 µM) was 19.2%, the viability, T/C (second compound 1 µM, first compound 0.0949 µM) was 16.7% and the viability, T/C (second compound 1 µM, first compound 0.3 µM) was 16.7%. The viability, T/C (second compound 3.16 µM, first compound 0.000949 µM) was 20.1%, the viability, T/C (second compound 3.16 µM, first compound 0.003 µM) was 20.9% and the viability, T/C (second compound 3.16 µM, first compound 0.00949 µM) was 21.1%. The viability, T/C (second compound 3.16 µM, first compound 0.03 µM) was 19.5%, the viability, T/C (second compound 3.16 µM, first compound 0.0949 µM) was 17.9% and the viability, T/C (second compound 3.16 µM, first compound 0.3 µM) was 14.8%. The viability, T/C (second compound 10 µM, first compound 0.000949 µM) was 18.9%, the viability, T/C (second compound 10 µM, first compound 0.003 µM) was 21.2% and the viability, T/C (second compound 10 µM, first compound 0.00949 µM) was 18.1%. For the same compound, the viability, T/C (second compound 10 µM, first compound 0.03 µM) was 19.4%, the viability, T/C (second compound 10 µM, first compound 0.0949 µM) was 17.6% and the viability, T/C (second compound 10 µM, first compound 0.3 µM) was 15.3%.
